Laboratory results as given in patent publication US20140066373A1, “TREATING DIABETES WITH OXYTOCIN OR OXYTOCIN ANALOGS” (Albert Einstein College of Medicine of Yeshiva University, priority 2012, published 2014).
Where no end group is shown, it is not given here.

Key:
[1] = test system: STZ-induced diabetic mice; assay: 7-day intra-third ventricle pretreatment in STZ-induced diabetic mice: GTT, fasting blood insulin, GSIS, body weight; assay type: in vivo, C57BL/6 mice; conditions: vs STZ control; for first-phase glucose-stimulated insulin secretion (GSIS): blood insulin 3 min after glucose 3 g/kg i.p.; for fasting blood insulin levels / glucose intolerance (glucose tolerance test, GTT and AUC): pretreatment twice per day for 7 days, intra-third ventricle, 1 μg per injection (1 mg [sic] for [Ser4, Ile8]-oxytocin), STZ 40 mg/kg i.p. Day 4 to Day 7
From the text: (§1) Animals. C57BL/6 mice were purchased from Jackson Laboratory. All mice were housed in standard conditions. High-fat diet was purchased from Research Diets, Inc. All animal procedures were approved by the Institutional Animal Care and Use Committee. Mice were subjected to body weight measurement on a daily basis surrounding surgical procedures or drug treatments to monitor physical recovery or the effect of drug treatment on body weight.
(§2) Third ventricle cannulation and drug treatment. Third ventricle cannulation procedure was as previously described (39). An ultra-precise small animal stereotactic apparatus (Kopf Instruments) was used to perform implantation of a guide cannula into the third ventricle of anesthetized mice, at the coordinates of 1.8 mm posterior to the bregma and 5.0 mm below the skull surface. Mice were allowed 1-2 weeks for postsurgical recovery. For drug treatment. Oxytocin (Bachem Americas, Inc.), [Ser4, Ile8]-oxytocin (Bachem Americas, Inc.), [Asu1,6]-oxytocin (American Peptide Company, Inc.) or control vehicle were injected via pre-implanted guide cannula into the third ventricle of individually housed mice.
(§3) Blood tests. For glucose tolerance test (GTT), overnight-fasted mice received one-time intraperitoneal injection of glucose (2 g/kg body weight), and blood glucose levels were measured using OneTouch Ultra2 (LifeScan, Inc.). Fasting blood insulin levels were measured with Ultra Sensitive Mouse Insulin ELISA kits (Crystal Chem). Glucose-stimulated insulin secretion (GSIS) test was performed as previously described (19). Overnight-fasted mice received one-time intraperitoneal injection of glucose (3 g/kg body weight), and blood insulin levels were measured at 3 min. and 20 min. after the injection.
Next, it was investigated if oxytocin therapy may treat diabetes by counteracting its main pathological changes of pancreatic beta cell dysfunction and impaired insulin secretion. […] Experimentally, adult C57BL/6 mice on normal chow diet received intra-third ventricle implantation of cannula and postsurgical recovery. Oxytocin pretreatment was given at 1 μg per injection twice per day for 7 consecutive days via pre-implanted cannula, and non-treatment group received vehicle injections. From Day 4 to Day 7 during oxytocin treatment, mice simultaneously received intraperitoneal injections of STZ at 40 mg/kg body weight per day for 4 days to induce diabetes.
The same test strategy of pretreating mice with [Ser4, Ile8]-oxytocin was employed and then evaluating if it could attenuate the extent of STZ-induced beta cell dysfunction and diabetes. Adult chow-fed C57BL/6 mice first received intra-third ventricle injections of [Ser4, Ile8]-oxytocin at 1 mg per injection twice per day for 7 consecutive days. Non-treatment control mice received intra-third ventricle injections of vehicle instead of [Ser4, Ile8]-oxytocin. From Day 4 to Day 7 of [Ser4, Ile8]-oxytocin treatment, both treatment and control groups received intraperitoneal injections of STZ at 40 mg/kg body weight per injection per day for 4 days. The same panel of examinations were performed including glucose tolerance test, fasting blood insulin levels and glucose-stimulated insulin secretion in these mice.
Finally [Asu1,6]-oxytocin was tested for potential […] protection and anti-diabetic effects using an STZ-induced diabetic mouse model. [Asu1,6]-oxytocin pretreatment was given to adult chow-fed C57BL/6 mice via intra-third ventricle injections at 1 μg per injection b.i.d. for 7 consecutive days. Vehicle injections were given in parallel to non-treatment control group. From Day 4 to Day 7 of [Asu1,6]-oxytocin treatment, mice were subjected to STZ induction of diabetes at 40 mg/kg body weight per intraperitoneal injection per day for 4 days. Following [Asu1,6]-oxytocin and STZ treatments, mice were evaluated for glucose tolerance test, fasting blood insulin levels, and glucose-stimulated insulin secretion.

normal rats = conditions: central or peripheral administration; normal rats (5); cited from earlier work
obesity = conditions: cited from earlier work
[2] = test system: HFD-induced prediabetic mouse model; assay: Acute intra-third ventricle therapy in HFD-induced prediabetic (dietary obese) mice: GTT, fasting blood insulin, body weight; assay type: in vivo, C57BL/6 mice; conditions: for fasting blood insulin levels (hyperinsulinemia) / glucose intolerance (glucose tolerance test, GTT and AUC) / treatment effects compared with oxytocin at the same dose: 2-month HFD mice, intra-third ventricle; for fasting blood insulin levels (hyperinsulinemia) / glucose intolerance (glucose tolerance test, GTT and AUC): 2 μg per injection twice over overnight fasting, vs vehicle; for treatment effects compared with oxytocin at the same dose: 2 μg per injection twice, GTT and fasting insulin
From the text: as §1, §2, §3
Acute oxytocin therapy reverses insulin resistance in dietary obese mice independently of body weight. […] To experimentally address whether oxytocin could have an anti-diabetic action, and independently of its anti-obesity effect, an acute oxytocin therapy paradigm was applied to dietary obese mice to avoid confounding body weight changes, so that the potential anti-diabetes effect of oxytocin could be dissected from its anti-obesity effect. Adult male C57BL/6 mice […] of high-fat diet (HFD) feeding since weaning to develop pre-diabetic glucose intolerance and hyperinsulinemia. Then these mice received third-ventricle implantation of guide cannula followed by postsurgical recovery. Oxytocin was administered via pre-implanted third-ventricle cannula at a dose of 2 μg per injection twice over an overnight fasting period, one at the starting point of fasting and the other at 30 min prior to glucose tolerance test (GTT). Mice of treatment control group received intra-third ventricle vehicle injections.
Acute [Ser4, Ile8]-oxytocin therapy improves insulin resistance in dietary obese mice independently of body weight. Having observed the anti-insulin resistance effect of oxytocin, it was next investigated whether oxytocin peptide analogs have similar or stronger treatment effect. The purpose of this experiment was two-fold. First, was to investigate whether the anti-insulin resistance action of oxytocin could be extended to oxytocin analogs. […] Existing oxytocin peptide analogs were screened. [Ser4, Ile8]-oxytocin came out of the screen as a good candidate. […] This stronger anti-insulin resistance effect of [Ser4, Ile8]-oxytocin is in line with structure-based theoretical prediction of drug effects. The substitution of glutamine at amino acid position 4 of oxytocin with serine has two direct effects on peptide function—it strengthens the α-helical structure in peptide (13), which leads to an overall structural stabilization, longer drug duration, and better protein binding property with signaling partners; it also increases the hydrophobicity of peptide, which leads to enhanced membrane permeability and improved tissue distribution. […]

normal men = normal men (29); cited from earlier work
type-1 diabetic patients = type-1 diabetic patients (28); cited from earlier work
[3] = test system: uterine contractile response; conditions: of natural oxytocin, literature report (36); cited from earlier work

CC[C@H](C)[C@@H]1NC(=O)[C@H](Cc2ccc(O)cc2)NC(=O)[C@@H](N)CSSC[C@@H](C(=O)N2CCC[C@H]2C(=O)N[C@@H](CC(C)C)C(=O)NCC(N)=O)NC(=O)[C@H](CC(N)=O)NC(=O)[C@H](CCC(N)=O)NC1=O [oxytocin, Cys-Tyr-Ile-Gln-Asn-Cys-Pro-Leu-Gly-NH2]
first-phase glucose-stimulated insulin secretion (GSIS) ([1]; 7-day pretreatment, STZ mice): potentiated
second-phase glucose-stimulated insulin secretion (GSIS) ([1]; blood insulin 20 min after glucose 3 g/kg i.p., 7-day pretreatment, STZ mice): potentiated
fasting blood insulin levels [1]: protected fasting blood insulin levels
glucose intolerance (glucose tolerance test, GTT and AUC) [1]: significantly improved glucose intolerance
pancreatic insulin secretion (normal rats): can stimulate pancreatic insulin secretion
obesity (obesity; chronic central or peripheral oxytocin treatment (25; 37)): can decrease obesity
food intake (obesity; oxytocin treatment (37)): decreases rather than increases food intake
fasting blood insulin levels (hyperinsulinemia) [2]: significantly improved
glucose intolerance (glucose tolerance test, GTT and AUC) [2]: significantly improved
insulin resistance ([2]; obesity-induced type-2 prediabetic mice, acute treatment): can acutely reverse insulin resistance
pancreatic insulin secretion (normal men): can stimulate pancreatic insulin secretion
pancreatic insulin secretion (type-1 diabetic patients): can stimulate pancreatic insulin secretion

[Asu1,6]-oxytocin
first-phase glucose-stimulated insulin secretion (GSIS) ([1]; 7-day pretreatment, STZ mice): appreciably improved
fasting blood insulin levels [1]: appreciably improved
glucose intolerance (glucose tolerance test, GTT and AUC) [1]: appreciably improved
fasting blood insulin levels (hyperinsulinemia) [2]: lowered fasting blood insulin levels
glucose intolerance (glucose tolerance test, GTT and AUC) [2]: improved glucose intolerance
treatment effects compared with oxytocin at the same dose [2]: slightly weaker than oxytocin
intrinsic activity relative to natural oxytocin [3]: ~70%

[Ser4, Ile8]-oxytocin (CYISNCPIG; ends and bridges not checked; cysteine pairing not given here; UniProt P01178 20-28, looked up, variant Q4S L8I) [oxytocin analog: glutamine at position 4 substituted with serine, leucine at position 8 with isoleucine; Bachem Americas, Inc]
first-phase glucose-stimulated insulin secretion (GSIS) ([1]; 7-day pretreatment, STZ mice): significantly higher levels of first-phase GSIS than non-treatment group
fasting blood insulin levels [1]: ameliorated circulating insulin insufficiency
glucose intolerance (glucose tolerance test, GTT and AUC) [1]: significantly prevented STZ-induced glucose intolerance
fasting blood insulin levels (hyperinsulinemia) [2]: significantly corrected
glucose intolerance (glucose tolerance test, GTT and AUC) [2]: significantly corrected glucose intolerance
treatment effects compared with oxytocin at the same dose [2]: higher efficacy than oxytocin
